How the values were obtained:
human SGLT1 = molecular target: T1, human SGLT1 (Homo sapiens, UniProt P13866); test: SGLT1 assay: Na-dependent 14C-AMG uptake in CHO-K1 cells stably expressing human SGLT1; type: cell-based; settings: 500 μM AMG, 2 hours at 37° C.
T1 construct: expressed in transfected cells; host or cells: CHO-K1
T1 sequence (P13866 1-664): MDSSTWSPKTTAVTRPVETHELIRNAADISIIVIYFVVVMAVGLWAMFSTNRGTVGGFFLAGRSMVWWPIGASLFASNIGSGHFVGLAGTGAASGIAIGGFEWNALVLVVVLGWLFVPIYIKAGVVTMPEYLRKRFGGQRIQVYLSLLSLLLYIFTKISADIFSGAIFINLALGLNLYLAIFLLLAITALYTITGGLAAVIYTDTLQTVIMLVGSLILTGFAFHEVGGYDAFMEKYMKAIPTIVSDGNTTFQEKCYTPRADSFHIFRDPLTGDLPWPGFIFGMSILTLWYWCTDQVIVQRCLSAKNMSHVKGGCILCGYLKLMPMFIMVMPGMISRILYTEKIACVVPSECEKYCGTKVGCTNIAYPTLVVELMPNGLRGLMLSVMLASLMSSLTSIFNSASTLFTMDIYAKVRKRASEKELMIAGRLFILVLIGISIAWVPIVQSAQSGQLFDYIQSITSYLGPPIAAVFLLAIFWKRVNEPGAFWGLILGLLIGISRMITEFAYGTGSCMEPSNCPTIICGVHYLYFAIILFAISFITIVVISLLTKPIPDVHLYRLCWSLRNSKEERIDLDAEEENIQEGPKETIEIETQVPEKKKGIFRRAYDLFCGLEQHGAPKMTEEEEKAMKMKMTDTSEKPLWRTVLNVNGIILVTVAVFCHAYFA
Procedure, shortened: (§1)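 CHO-K1 cells stably expressing human SGLT1 or SGLT2, pretreated 24 h with 10 mM Na-butyrate, were exposed 10 min to compound (0.001-10 μM) in Na-containing HEPES/Tris buffer pH 7.4. Uptake of ^14C-AMG (500 μM final) ran 2 h at 37° C, then Na-dependent uptake was counted by scintillation.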

human SGLT2 = molecular target: T2, human SGLT2 (Homo sapiens, UniProt P31639); test: SGLT2 assay: Na-dependent 14C-AMG uptake in CHO-K1 cells stably expressing human SGLT2; type: cell-based; settings: 500 μM AMG, 2 hours at 37° C.
T2 construct: expressed in transfected cells; host or cells: CHO-K1
T2 sequence (P31639 1-672): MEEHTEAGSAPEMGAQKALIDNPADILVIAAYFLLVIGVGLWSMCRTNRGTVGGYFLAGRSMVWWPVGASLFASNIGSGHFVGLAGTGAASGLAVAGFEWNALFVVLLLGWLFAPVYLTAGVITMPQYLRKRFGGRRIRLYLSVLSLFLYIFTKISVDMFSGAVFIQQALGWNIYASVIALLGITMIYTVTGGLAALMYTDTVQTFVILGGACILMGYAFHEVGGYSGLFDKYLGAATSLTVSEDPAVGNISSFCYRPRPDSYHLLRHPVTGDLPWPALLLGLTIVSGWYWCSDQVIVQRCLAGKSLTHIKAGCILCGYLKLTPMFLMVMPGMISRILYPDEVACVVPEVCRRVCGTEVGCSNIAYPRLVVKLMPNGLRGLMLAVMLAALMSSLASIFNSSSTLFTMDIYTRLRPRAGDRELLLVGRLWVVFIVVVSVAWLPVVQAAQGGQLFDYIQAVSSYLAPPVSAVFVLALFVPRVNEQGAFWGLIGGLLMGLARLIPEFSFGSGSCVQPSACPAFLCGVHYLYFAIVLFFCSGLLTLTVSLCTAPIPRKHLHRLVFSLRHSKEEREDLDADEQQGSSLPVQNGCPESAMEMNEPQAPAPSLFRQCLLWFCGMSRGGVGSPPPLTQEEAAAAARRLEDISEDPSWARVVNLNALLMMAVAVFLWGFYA
Procedure, shortened: as §1

Compound	IC50 (human SGLT1)	IC50 (human SGLT2)
OC[C@H]1O[C@@H](c2cc(Cc3ccc4c(c3)CC4)c(Cl)cc2O)[C@H](O)[C@@H](O)[C@@H]1F [Compound 129]	4 nM	1 nM
Cc1cc(O)c([C@@H]2O[C@H](CO)[C@@H](F)[C@H](O)[C@H]2O)cc1Cc1ccc2c(c1)CC2 [Compound 130]	15 nM	1 nM
CCOc1cc(C)c(Cc2ccc3c(c2)CC3)cc1[C@@H]1O[C@H](CO)[C@@H](F)[C@H](O)[C@H]1O [Compound 131]	49 nM	1 nM
CCOc1cc(Cl)c(Cc2ccc3c(c2)CC3)cc1[C@@H]1O[C@H](CO)[C@@H](F)[C@H](O)[C@H]1O [Compound 132]	18 nM	1 nM
COc1cc(Cl)c(Cc2ccc3c(c2)CC3)cc1[C@@H]1O[C@H](CO)[C@@H](F)[C@H](O)[C@H]1O [Compound 133]	15 nM	1 nM
OC[C@H]1O[C@@H](c2ccc(Cl)c(Cc3ccc4c(c3)CC4)c2)[C@H](O)[C@@H](O)[C@@H]1F [Compound 134]	36 nM	2 nM
COc1cc(O)c([C@@H]2O[C@H](CO)[C@@H](F)[C@H](O)[C@H]2O)cc1Cc1ccc2c(c1)CC2 [Compound 135]	3 nM	3 nM
COc1cc(OC)c([C@@H]2O[C@H](CO)[C@@H](F)[C@H](O)[C@H]2O)cc1Cc1ccc2c(c1)CC2 [Compound 136]	9 nM	1 nM
CCOc1cc(OC)c(Cc2ccc3c(c2)CC3)cc1[C@@H]1O[C@H](CO)[C@@H](F)[C@H](O)[C@H]1O [Compound 137]	20 nM	1 nM
OC[C@H]1O[C@@H](c2ccc(Cl)c(C(F)(F)c3ccc4c(c3)CC4)c2)[C@H](O)[C@@H](O)[C@@H]1O [Compound 140]	50 nM	2 nM
Cc1ccc([C@@H]2O[C@H](CO)[C@@H](O)[C@H](O)[C@H]2O)cc1C(F)(F)c1ccc2c(c1)CC2 [Compound 141]	33 nM	2 nM
Cc1ccc([C@@H]2O[C@H](CO)[C@@H](F)[C@H](O)[C@H]2O)cc1C(F)(F)c1ccc2c(c1)CC2 [Compound 142]	133 nM	23 nM

Source: patent US10815210B2, “Benzocyclobutane derivatives useful as dual SGLT1 / SGLT2 modulators” (Janssen Pharmaceutica NV, priority 2016, dated 2020)
